Results published in patent publication US20100144700A1, “HETEROCYCLIC-CARBONYL-DIAZABICYCLOALKANES AS MODULATORS OF THE NEURONAL NICOTINIC ACETYLCHOLINE ALPHA 4 BETA 2, SUBTYPE RECEPTOR FOR THE TREATMENT OF CNS RELATED DISORDERS” (TARGACEPT, INC., priority 2007, published 2010).
pKi: −log10 of the molar value. Where two headings read alike, the source gives them in different places.

What was measured:
Human α4β2 = Human α4β2 (Homo sapiens, UniProt P17787+P43681); test: Binding at human α4β2 subtype (Table 1)
Chain of Human α4β2 (P43681 29-627 limits assumed): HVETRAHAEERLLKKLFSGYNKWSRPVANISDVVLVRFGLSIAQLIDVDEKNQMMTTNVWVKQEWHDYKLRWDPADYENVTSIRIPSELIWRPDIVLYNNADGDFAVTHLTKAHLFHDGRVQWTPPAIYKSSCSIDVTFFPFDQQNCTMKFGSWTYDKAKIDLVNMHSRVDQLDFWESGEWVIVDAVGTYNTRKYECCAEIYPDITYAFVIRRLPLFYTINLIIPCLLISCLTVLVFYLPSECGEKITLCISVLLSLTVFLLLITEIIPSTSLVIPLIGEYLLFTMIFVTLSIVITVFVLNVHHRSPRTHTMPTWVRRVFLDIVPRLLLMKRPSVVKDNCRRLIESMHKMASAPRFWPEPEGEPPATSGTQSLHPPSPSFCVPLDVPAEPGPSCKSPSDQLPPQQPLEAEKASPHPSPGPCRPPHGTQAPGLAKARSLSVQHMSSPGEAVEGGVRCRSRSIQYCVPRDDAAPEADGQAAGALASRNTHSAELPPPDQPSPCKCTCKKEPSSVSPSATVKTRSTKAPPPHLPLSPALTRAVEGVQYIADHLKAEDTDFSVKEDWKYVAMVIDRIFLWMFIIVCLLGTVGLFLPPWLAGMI
Chain of Human α4β2 (P17787 26-502): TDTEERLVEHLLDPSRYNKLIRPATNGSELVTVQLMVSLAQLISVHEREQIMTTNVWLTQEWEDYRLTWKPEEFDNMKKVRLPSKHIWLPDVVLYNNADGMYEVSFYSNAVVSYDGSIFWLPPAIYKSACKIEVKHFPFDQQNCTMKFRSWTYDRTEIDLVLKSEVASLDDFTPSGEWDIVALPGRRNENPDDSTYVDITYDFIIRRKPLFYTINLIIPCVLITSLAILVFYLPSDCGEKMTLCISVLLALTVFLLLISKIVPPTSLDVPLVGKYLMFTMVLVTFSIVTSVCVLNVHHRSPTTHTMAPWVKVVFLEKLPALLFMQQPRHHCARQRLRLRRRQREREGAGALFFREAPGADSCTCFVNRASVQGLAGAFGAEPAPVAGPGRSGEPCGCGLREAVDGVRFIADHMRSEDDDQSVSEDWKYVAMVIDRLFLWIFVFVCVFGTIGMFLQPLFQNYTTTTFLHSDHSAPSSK

α7 nAChR Subtype = target: T1, α7 nAChR Subtype (Rattus norvegicus, UniProt Q05941); test: Radioligand binding ([3H]MLA) at α7 nAChR subtype, rat hippocampus membranes; HTS at 5 μM; settings: for inhibition at 5 µM: 5 μM compound, 5 nM 3H-MLA, read-out: α7 high throughput screening (HTS) binding
T1 construct: The hippocampus was removed and placed in 10 volumes (weight:volume) of ice-cold preparative buffer; from tissue; host or cells: rat hippocampus membranes
T1 sequence (Q05941 23-502): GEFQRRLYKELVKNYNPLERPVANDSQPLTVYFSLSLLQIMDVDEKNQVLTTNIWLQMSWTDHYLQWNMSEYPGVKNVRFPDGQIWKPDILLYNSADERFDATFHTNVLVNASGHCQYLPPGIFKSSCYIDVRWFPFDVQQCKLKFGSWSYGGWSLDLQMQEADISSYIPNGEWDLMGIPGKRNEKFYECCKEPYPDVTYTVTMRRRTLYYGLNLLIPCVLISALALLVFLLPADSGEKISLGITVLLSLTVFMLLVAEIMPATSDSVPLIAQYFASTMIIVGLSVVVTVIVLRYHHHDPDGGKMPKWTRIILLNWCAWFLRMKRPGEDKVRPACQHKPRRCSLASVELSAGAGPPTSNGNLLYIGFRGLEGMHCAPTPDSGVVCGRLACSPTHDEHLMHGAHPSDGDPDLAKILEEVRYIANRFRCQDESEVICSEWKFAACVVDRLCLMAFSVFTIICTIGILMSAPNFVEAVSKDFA
Procedure: Rats (female, Sprague-Dawley), weighing 150-250 g, were maintained on a 12 h light/dark cycle and were allowed free access to water and food supplied by PMI Nutrition International, Inc. Animals were anesthetized with 70% CO2, then decapitated. Brains were removed and placed on an ice-cold platform. The hippocampus was removed and placed in 10 volumes (weight:volume) of ice-cold preparative buffer (137 mM NaCl, 10.7 mM KCl, 5.8 mM KH2PO4, 8 mM Na2HPO4, 20 mM HEPES (free acid), 5 mM iodoacetamide, 1.6 mM EDTA, pH 7.4); PMSF, dissolved in methanol to a final concentration of 100 μM, was added and the tissue suspension was homogenized by Polytron. The homogenate was centrifuged at 18,000×g for 20 min at 4° C. and the resulting pellet was re-suspended in 10 volumes of ice-cold water. After 60 min incubation on ice, a new pellet was collected by centrifugation at 18,000×g for 20 min at 4° C. The final pellet was re-suspended in 10 volumes of buffer and stored at −20° C. On the day of the assay, tissue was thawed, centrifuged at 18,000×g for 20 min, and then re-suspended in ice-cold PBS (Dulbecco's Phosphate Buffered Saline, 138 mM NaCl, 2.67 mM KCl, 1.47 mM KH2PO4, 8.1 mM Na2HPO4, 0.9 mM CaCl2, 0.5 mM MgCl2, Invitrogen/Gibco, pH 7.4) to a final concentration of approximately 2 mg protein/mL. Protein was determined by the method of Lowry et al., J. Biol. Chem. 193: 265 (1951), using bovine serum albumin as the standard.
The binding of [^3H]MLA was measured using a modification of the methods of Davies et al., Neuropharmacol. 38: 679 (1999). [^3H]MLA (Specific Activity=25-35 Ci/mmol) was obtained from Tocris. The binding of [^3H]MLA was determined using a 2 h incubation at 21° C. Incubations were conducted in 48-well micro-titre plates and contained about 200 μg of protein per well in a final incubation volume of 300 μL. The incubation buffer was PBS and the final concentration of [^3H]MLA was 5 nM. The binding reaction was terminated by filtration of the protein containing bound ligand onto glass fiber filters (GF/B, Brandel) using a Brandel Tissue Harvester at room temperature. Filters were soaked in de-ionized water containing 0.33% polyethyleneimine to reduce non-specific binding. Each filter was washed with PBS (3×1 mL) at room temperature. Non-specific binding was determined by inclusion of 50 μM non-radioactive MLA in selected wells.
[…] Each concentration was replicated in triplicate. […] […] Pharmacol. 22: 3099-3108 (1973).

α4β2 nAChR Subtype = target: T2, α4β2 nAChR Subtype (Rattus norvegicus, UniProt P09483+P12390); test: Radioligand binding ([3H]nicotine) at rat α4β2 nAChR subtype, rat cerebral cortex membranes
T2 construct: The cerebral cortex was removed and placed in 20 volumes (weight:volume) of ice-cold preparative buffer; from tissue; host or cells: rat cerebral cortex membranes
T2 sequence (P09483 31-630): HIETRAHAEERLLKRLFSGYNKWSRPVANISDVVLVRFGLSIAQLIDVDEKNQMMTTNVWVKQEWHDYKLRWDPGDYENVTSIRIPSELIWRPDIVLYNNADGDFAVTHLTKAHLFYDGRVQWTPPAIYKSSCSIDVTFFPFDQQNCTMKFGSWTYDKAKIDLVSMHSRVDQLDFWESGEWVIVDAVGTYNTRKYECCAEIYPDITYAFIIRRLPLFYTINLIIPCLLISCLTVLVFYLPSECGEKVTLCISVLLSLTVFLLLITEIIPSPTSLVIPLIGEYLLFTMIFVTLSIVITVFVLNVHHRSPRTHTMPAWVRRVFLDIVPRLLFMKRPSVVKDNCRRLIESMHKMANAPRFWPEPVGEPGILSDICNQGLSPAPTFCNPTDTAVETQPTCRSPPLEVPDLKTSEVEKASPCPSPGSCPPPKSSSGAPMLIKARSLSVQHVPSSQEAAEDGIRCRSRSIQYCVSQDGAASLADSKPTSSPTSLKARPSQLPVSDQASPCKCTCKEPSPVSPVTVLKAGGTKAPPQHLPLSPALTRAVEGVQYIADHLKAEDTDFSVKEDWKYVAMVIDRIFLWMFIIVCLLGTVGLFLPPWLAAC
T2 sequence (P12390 25-500): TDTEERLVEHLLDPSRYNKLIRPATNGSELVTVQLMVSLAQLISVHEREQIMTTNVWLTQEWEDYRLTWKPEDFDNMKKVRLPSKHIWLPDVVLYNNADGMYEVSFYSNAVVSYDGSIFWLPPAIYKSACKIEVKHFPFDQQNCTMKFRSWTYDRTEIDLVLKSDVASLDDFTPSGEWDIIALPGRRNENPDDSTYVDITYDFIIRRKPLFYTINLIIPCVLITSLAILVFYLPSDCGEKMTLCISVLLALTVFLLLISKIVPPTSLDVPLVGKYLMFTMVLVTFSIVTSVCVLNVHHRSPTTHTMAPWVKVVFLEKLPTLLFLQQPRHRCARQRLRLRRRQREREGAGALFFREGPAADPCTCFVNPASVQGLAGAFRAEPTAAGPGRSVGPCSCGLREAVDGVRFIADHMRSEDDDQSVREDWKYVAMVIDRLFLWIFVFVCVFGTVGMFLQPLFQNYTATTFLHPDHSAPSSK
Procedure: Rats (female, Sprague-Dawley), weighing 150-250 g, were maintained on a 12 h light/dark cycle and were allowed free access to water and food supplied by PMI Nutrition International, Inc. Animals were anesthetized with 70% CO2, then decapitated. Brains were removed and placed on an ice-cold platform. The cerebral cortex was removed and placed in 20 volumes (weight:volume) of ice-cold preparative buffer (137 mM NaCl, 10.7 mM KCl, 5.8 mM KH2PO4, 8 mM Na2HPO4, 20 mM HEPES (free acid), 5 mM iodoacetamide, 1.6 mM EDTA, pH 7.4); PMSF, dissolved in methanol to a final concentration of 100 μM, was added and the suspension was homogenized by Polytron. The homogenate was centrifuged at 18,000×g for 20 min at 4° C. and the resulting pellet was re-suspended in 20 volumes of ice-cold water. After 60 min incubation on ice, a new pellet was collected by centrifugation at 18,000×g for 20 min at 4° C. The final pellet was re-suspended in 10 volumes of buffer and stored at −20° C. On the day of the assay, tissue was thawed, centrifuged at 18,000×g for 20 min, and then re-suspended in ice-cold PBS (Dulbecco's Phosphate Buffered Saline, 138 mM NaCl, 2.67 mM KCl, 1.47 mM KH2PO4, 8.1 mM Na2HPO4, 0.9 mM CaCl2, 0.5 mM MgCl2, Invitrogen/Gibco, pH 7.4) to a final concentration of approximately 4 mg protein/mL. Protein was determined by the method of Lowry et al., J. Biol. Chem. 193: 265 (1951), using bovine serum albumin as the standard.
The binding of [^3H]nicotine was measured using a modification of the methods of Romano et al., Science 210: 647 (1980) and Marks et al., Mol. Pharmacol. 30: 427 (1986). The [^3H]nicotine (Specific Activity=81.5 Ci/mmol) was obtained from NEN Research Products. The binding of [^3H]nicotine was measured using a 3 h incubation at 4° C. Incubations were conducted in 48-well micro-titre plates and contained about 400 μg of protein per well in a final incubation volume of 300 μL. The incubation buffer was PBS and the final concentration of [^3H]nicotine was 5 nM. The binding reaction was terminated by filtration of the protein containing bound ligand onto glass fiber filters (GF/B, Brandel) using a Brandel Tissue Harvester at 4° C. Filters were soaked in de-ionized water containing 0.33% polyethyleneimine to reduce non-specific binding. Each filter was washed with ice-cold buffer (3×1 mL). Non-specific binding was determined by inclusion of 10 μM non-radioactive L-nicotine (Acros Organics) in selected wells.
The inhibition of [^3H]nicotine binding by test compounds was determined by including seven different concentrations of the test compound in selected wells. Each concentration was replicated in triplicate. IC50 values were estimated as the concentration of compound that inhibited 50 percent of specific [^3H]nicotine binding. Inhibition constants (Ki values), reported in nM, were calculated from the IC50 values using the method of Cheng et al., Biochem. Pharmacol. 22: 3099 (1973).

[1] = [3H]nicotine 5 nM, rat cortex, read-out: Rat α4β2 Ki

SMILES | pKi (Human α4β2; read-out: Human α4β2 Ki) | inhibition at 5 µM (α7 nAChR Subtype) | pKi (α4β2 nAChR Subtype) | pKi (α4β2 nAChR Subtype; [1]) | pKi (Human α4β2) | pKi (α7 nAChR Subtype; [3H]MLA 5 nM, rat hippocampus)
Cc1ncoc1C(=O)N1CCC2NCC2C1 (stereo not drawn) | 6.10 | ≤ 50% | – | – | – | –
O=C(c1ccc(Br)o1)N1CC2CNC(C2)C1 (stereo not drawn) | 9.10 | ≤ 50% | 7.84 | – | – | –
Cc1nocc1C(=O)N1CC2CCNC2C1 (stereo not drawn) | 6.19 | ≤ 50% | – | 6.65 | – | –
O=C(c1ccno1)N1C[C@H]2CN[C@H](C2)C1 | 7.94 | ≤ 50% | 7.99 | – | – | –
O=C(c1cc(Cl)co1)N1C[C@@H]2CN[C@@H](C2)C1 | 7.38 | ≤ 50% | 7.51 | – | – | –
Cc1ncoc1C(=O)N1C[C@H]2CN[C@H](C2)C1 | 8.34 | ≤ 50% | 8.05 | – | – | –
Cc1nocc1C(=O)N1CC2CCNCC2C1 (stereo not drawn) | 6.05 | ≤ 50% | – | 6.05 | – | –
N#Cc1coc(C(=O)N2C[C@@H]3CN[C@@H](C3)C2)c1 | 7.31 | ≤ 50% | 7.63 | – | – | –
O=C(c1cnco1)N1C[C@@H]2CN[C@@H](C2)C1 | 7.07 | ≤ 50% | 7.15 | – | – | –
O=C(c1ccncc1)N1CC2CNC(C2)C1 (stereo not drawn) | 7.53 | ≤ 50% | – | – | – | –
Cc1cc(C(=O)N2C[C@@H]3CN[C@@H](C3)C2)no1 | 6.30 | ≤ 50% | – | 6.07 | – | –
Cc1cc(C(=O)N2C[C@@H]3CN[C@@H](C3)C2)on1 | – | ≤ 50% | – | 6.98 | 7.12 | –
Cc1ncoc1C(=O)N1CC2CNCCC21 (stereo not drawn) | 6.29 | ≤ 50% | – | – | – | –
O=C(c1ccco1)N1CCC2CNCC21 (stereo not drawn) | 6.07 | ≤ 50% | – | 6.22 | – | –
O=C(c1ccc(Cl)o1)N1C[C@@H]2CN[C@@H](C2)C1 | 7.57 | ≤ 50% | 7.40 | – | – | –
O=C(c1ccco1)N1CC2CCNC2C1 (stereo not drawn) | 6.10 | ≤ 50% | – | 6.08 | – | –
Cc1occc1C(=O)N1C[C@H]2CN[C@H](C2)C1 | 7.96 | ≤ 50% | 7.76 | – | – | –
O=C(c1ccno1)N1C[C@@H]2CN[C@@H](C2)C1 | 7.46 | ≤ 50% | 7.57 | – | – | –
Cc1cc(C(=O)N2C[C@H]3CN[C@H](C3)C2)no1 | 7.77 | ≤ 50% | 7.83 | – | – | –
COc1cc(C(=O)N2C[C@@H]3CN[C@@H](C3)C2)on1 | – | ≤ 50% | – | 6.44 | 7.02 | –
O=C(c1ccc(F)o1)N1C[C@@H]2CN[C@@H](C2)C1 | 7.84 | ≤ 50% | 8.03 | – | – | –
O=C(c1ccco1)N1CC2CNCC1C2 (stereo not drawn) | 6.66 | ≤ 50% | – | – | – | –

SMILES | pKi (Human α4β2; read-out: Human α4β2 Ki) | inhibition at 5 µM (α7 nAChR Subtype) | pKi (α4β2 nAChR Subtype) | pKi (α4β2 nAChR Subtype; [1]) | pKi (Human α4β2) | pKi (α7 nAChR Subtype; [3H]MLA 5 nM, rat hippocampus)
O=C(c1ccc(F)o1)N1C[C@H]2CN[C@H](C2)C1 | 8.16 | ≤ 50% | 8.07 | – | – | –
Cc1ccoc1C(=O)N1CC2CNCC1C2 (stereo not drawn) | – | ≤ 50% | – | 6.86 | 7.02 | –
Cc1coc(C(=O)N2C[C@@H]3CN[C@@H](C3)C2)c1 | 7.29 | ≤ 50% | 7.53 | – | – | –
O=C(c1cccnc1)N1CC2CNC(C2)C1 (stereo not drawn) | 6.44 | ≤ 50% | – | – | – | –
O=C(c1cc(Br)no1)N1CC2CNC(C2)C1 (stereo not drawn) | 8.55 | ≤ 50% | 8.47 | – | – | –
O=C(c1ccco1)N1C[C@H]2CN[C@H](C2)C1 | 7.88 | ≤ 50% | 7.97 | – | – | –
O=C(c1cc(Br)no1)N1CC2CNCC1C2 (stereo not drawn) | – | ≤ 50% | – | 6.77 | 7.84 | –
Cc1ncoc1C(=O)N1CC2CCNCC2C1 (stereo not drawn) | 6.67 | ≤ 50% | – | 6.02 | – | –
O=C(c1ccoc1)N1C[C@H]2CN[C@H](C2)C1 | 7.98 | ≤ 50% | 7.97 | – | – | –
O=C(c1ccc(Br)o1)N1C[C@H]2CN[C@H](C2)C1 | 8.17 | ≤ 50% | 7.84 | – | – | –
COc1cc(C(=O)N2CC3CNCC2C3)on1 (stereo not drawn) | 6.51 | ≤ 50% | – | 6.71 | – | –
O=C(c1cc(Br)no1)N1C[C@H]2CN[C@H](C2)C1 | 8.74 | ≤ 50% | 8.46 | – | – | –
O=C(c1ccco1)N1C[C@@H]2CN[C@@H](C2)C1 | 7.77 | – | 7.39 | – | – | 5.99
O=C(c1ccco1)N1CC2CNC(C2)C1 (stereo not drawn) | 7.62 | ≤ 50% | 7.72 | – | – | –
O=C(c1cccs1)N1C[C@H]2CN[C@H](C2)C1 | 8.14 | ≤ 50% | 8.23 | – | – | –
O=C(c1ccc(Br)o1)N1C[C@@H]2CN[C@@H](C2)C1 [drawing 16] | 7.37 | ≤ 50% | 7.41 | – | – | –
O=C(c1cnco1)N1C[C@H]2CN[C@H](C2)C1 | 7.85 | ≤ 50% | 7.89 | – | – | –
O=C(c1ccncc1)N1CC2CNCC1C2 (stereo not drawn) | 6.88 | ≤ 50% | – | 6.50 | – | –
COc1cc(C(=O)N2CC3CNC(C3)C2)on1 (stereo not drawn) | 8.43 | ≤ 50% | 8.30 | – | – | –
CC(C)c1cc(C(=O)N2C[C@@H]3CN[C@@H](C3)C2)on1 | 6.14 | ≤ 50% | – | 6.33 | – | –
Cc1nocc1C(=O)N1C[C@H]2CN[C@H](C2)C1 | 7.26 | ≤ 50% | 7.25 | – | – | –
Cc1ccoc1C(=O)N1CC2CNC(C2)C1 (stereo not drawn) | 8.47 | ≤ 50% | – | – | – | –
